Laboratory results as given in ChEMBL document CHEMBL1201862, “PubChem BioAssay data set” (2004).
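Each compound was tested at five concentrations against cells in 96-well plates for 48 hours. GI50 is the concentration that inhibits growth by half.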 Calls of active or inactive are those of the source. Cut-off read from the data, not from the text of the source: active = GI50 up to about 1.1 µM and inactive = higher.

Key:
Assay in all cases: growth of human tumour cells (NCI), 48 h
KM12 = system: KM12
SK-OV-3 = system: SK-OV-3
RXF 393 = system: RXF 393
M14 = system: M14
UO-31 = system: UO-31
Malme-3M = system: Malme-3M
SF-539 = system: SF-539
SF-295 = system: SF-295
OVCAR-4 = system: OVCAR-4
A498 = system: A498
NCI-H23 = system: NCI-H23
EKVX = system: EKVX
SK-MEL-2 = system: SK-MEL-2
RPMI-8226 = system: RPMI-8226

Row | SMILES | GI50 (KM12) | GI50 (SK-OV-3) | GI50 (RXF 393) | GI50 (M14) | GI50 (UO-31) | GI50 (Malme-3M) | GI50 (SF-539) | GI50 (SF-295) | GI50 (OVCAR-4) | GI50 (A498) | GI50 (NCI-H23) | GI50 (EKVX) | GI50 (SK-MEL-2) | GI50 (RPMI-8226)
1 | O=C(Cc1nc2ccc([N+](=O)[O-])cc2nc1O)C(=O)Nc1ccccc1[N+](=O)[O-] | 86.3 µM (inactive) | > 100 µM (inactive) | > 100 µM (inactive) | > 100 µM (inactive) | > 100 µM (inactive) | > 100 µM (inactive) | > 100 µM (inactive) | > 100 µM (inactive) | > 100 µM (inactive) | > 100 µM (inactive) | > 100 µM (inactive) | > 100 µM (inactive) | > 100 µM (inactive) | –
2 | Cc1c(C(=O)/C=C/c2ccccc2[N+](=O)[O-])[n+]([O-])c2ccccc2[n+]1[O-] | 10.3 µM (inactive) | 17.9 µM (inactive) | – | 11 µM (inactive) | 18.8 µM (inactive) | 13.3 µM (inactive) | 3.78 µM (inactive) | 7.5 µM (inactive) | 9.64 µM (inactive) | 13.3 µM (inactive) | 4.63 µM (inactive) | 14.4 µM (inactive) | 11.3 µM (inactive) | 2.96 µM (inactive)
3 | C/C(=N/NC(N)=S)c1ccc2ccccc2c1 | 9.16 µM (inactive) | 21.9 µM (inactive) | 35.3 µM (inactive) | 11.8 µM (inactive) | – | 41 µM (inactive) | 17.1 µM (inactive) | 29.4 µM (inactive) | 28.3 µM (inactive) | 42.4 µM (inactive) | 29.7 µM (inactive) | 0.443 µM (active) | 15.8 µM (inactive) | –
4 | COc1ccc(-c2cc3[nH]nc(N)c3c(=O)o2)cc1 | > 100 µM (inactive) | – | 55.3 µM (inactive) | > 100 µM (inactive) | > 100 µM (inactive) | > 100 µM (inactive) | > 100 µM (inactive) | > 100 µM (inactive) | > 100 µM (inactive) | 76.9 µM (inactive) | > 100 µM (inactive) | 14 µM (inactive) | > 100 µM (inactive) | > 100 µM (inactive)
5 | Cc1ccc(NC(=O)CSc2nnc(Cc3ccccc3)o2)c(C)c1 | > 100 µM (inactive) | > 100 µM (inactive) | > 100 µM (inactive) | > 100 µM (inactive) | > 100 µM (inactive) | > 100 µM (inactive) | – | > 100 µM (inactive) | > 100 µM (inactive) | – | > 100 µM (inactive) | > 100 µM (inactive) | > 100 µM (inactive) | > 100 µM (inactive)
6 | Cc1cc(Cl)ccc1NC(=O)CC1SC(NC(=O)c2ccccc2Cl)=NC1=O (stereo not drawn) | – | – | 17.7 µM (inactive) | 17.1 µM (inactive) | 21.6 µM (inactive) | 19.7 µM (inactive) | 19.2 µM (inactive) | > 100 µM (inactive) | 20.9 µM (inactive) | > 100 µM (inactive) | 50.2 µM (inactive) | > 100 µM (inactive) | 26.7 µM (inactive) | 15.2 µM (inactive)
7 | COc1cccc(NC(=O)/C(CC(=O)CC(c2ccccc2)c2c(O)c3ccccc3oc2=O)=N\NC(C)(C)C)c1OC (stereo not drawn) | 34 µM (inactive) | > 100 µM (inactive) | – | 44.5 µM (inactive) | 72.1 µM (inactive) | > 100 µM (inactive) | 34.5 µM (inactive) | > 100 µM (inactive) | > 100 µM (inactive) | > 100 µM (inactive) | – | 43.4 µM (inactive) | > 100 µM (inactive) | 29.3 µM (inactive)
8 | Oc1ccc(C2Oc3cc(O)cc4c3C2c2cc(O)cc3c2C(c2cc(O)cc5c2C4C(c2ccc(O)cc2)O5)C(c2ccc(O)cc2)O3)cc1 (stereo not drawn) | 7.4 µM (inactive) | – | – | > 25 µM (inactive) | 8.24 µM (inactive) | 5.7 µM (inactive) | 5.58 µM (inactive) | – | 4.4 µM (inactive) | > 25 µM (inactive) | 6.11 µM (inactive) | > 25 µM (inactive) | 5.51 µM (inactive) | 7.45 µM (inactive)
9 | Cc1ccc(NCCO)cc1 | > 100 µM (inactive) | > 100 µM (inactive) | – | > 100 µM (inactive) | > 100 µM (inactive) | > 100 µM (inactive) | > 100 µM (inactive) | > 100 µM (inactive) | > 100 µM (inactive) | – | > 100 µM (inactive) | > 100 µM (inactive) | > 100 µM (inactive) | > 100 µM (inactive)
10 | CC(C)(CN1CCOCC1)C(=O)/C=C/c1ccc(/C=C/C(=O)C(C)(C)CN2CCOCC2)cc1 | 1.54 µM (inactive) | 3.85 µM (inactive) | 1.83 µM (inactive) | 1.69 µM (inactive) | 1.75 µM (inactive) | 2.12 µM (inactive) | 2.07 µM (inactive) | 2.21 µM (inactive) | 0.942 µM (active) | 1.97 µM (inactive) | 1.58 µM (inactive) | 1.65 µM (inactive) | – | 2.7 µM (inactive)
